Consider one molecule from patent US8975441B2, “Process for preparing 2.2-dibromomalonamide” (Dow Global Technologies LLC, priority 2009, dated 2015).

The series is classed as physicochemical. Conditions: pH 7. The source says:
It has been discovered and is believed that the alkali earth metal base, which in some embodiments is part of the nitrile-amide-conversion composition, acts at basic pH values (i.e., at pH values greater than pH 7.0) to undesirably promote degradation of 2,2-dibromo-3-cyanoacetamide to undesirable products. […] As pH of the nitrile-amide-conversion composition becomes increasingly basic, the alkali earth metal base degrades increasing amounts of 2,2-dibromo-3-cyanoacetamide. This base-promoted degradation of 2,2-dibromo-3-cyanoacetamide is especially prevalent at pH 9.0 and higher. The invention process advantageously maintains pH of the reaction mixture in situ during conversion of 2,2-dibromo-3-cyanoacetamide to 2,2-dibromomalonamide in a pH range that minimizes or prevents base-promoted degradation of 2,2-dibromo-3-cyanoacetamide while at the same time facilitates the base-catalyzed conversion thereof to 2,2-dibromomalonamide.

Consider `NC(=O)C(Br)(Br)C(N)=O` [2,2-dibromomalonamide], for which the “stability relative to 2,2-dibromo-3-cyanoacetamide” value is reported as at least 10 times.
